Laboratory results as given in patent US20230094545A1, “S1P RECEPTOR MODULATORS” (AKAAL PHARMA PTY LTD, priority 2020, published 2023).

Tests used:
[1] = tested on: kainic acid induced seizures; experiment: Kainic acid model of epilepsy; type: in vivo, Sprague Dawley rats
Protocol: In an animal model of epilepsy, Sprague Dawley rats (n=6) were treated with the compound of Formula I or vehicle, dosed 1 hour prior to kainic acid administration (10 mg/kg, IP). […] There was significant reduction in seizures (70%, p<0.005) in the compound of formula (I) treated group. The changes observed in the hippocampal region of control animals included, minimal to mild neuronal cell death which included vaculations in neuronal cells particularly at C3 and C1 regions proving the compound of Formula I is neuroprotective.

mould = experiment: Anti-mould (antifungal) activity on wheat flour bread; settings: 1% ww and 3% ww water solution on bread, day 14, room temperature
Protocol: The compound of formula I solution as 0% ww, 1% ww and 3% ww as I mL water solution was added to a glass jar (5 mL) containing the fresh wheat flour bread (1 gm). The content was mixed well in order to wet the bread with solution. The content was kept in open glass cylinder for 14 days at room temperature and light (normal conditions) and the photos of Day 1 and Day 14 were taken (FIGS. 5A and B respectively). […] The mould is common in many skin indications and other human, animal and plant diseases. For example, Rhizopus stolonifera.

excision wound = experiment: Animal model of excision wound; type: in vivo, Wistar rats; settings: 3% w/w ointment, 0.20 g/animal wound, topically twice daily
Protocol: Two groups with six Wistar rats in each group were anaesthetized with a dose of 80 mg/kg of ketamine (i.p.) and the back of the animals were shaved. One excision wound was inflicted by cutting away (with a sterile scalpel) a 600-700 mm^2 section of the full thickness of the skin from a predetermined area. The wound was left undressed to the open environment. Group 1 rats were untreated and served as sham control. Group 2 animals were treated with a compound of Formula I in an ointment formulation (3% w/w). The ointment (0.20 g/animal wound) was applied topically twice daily.

CFA mediated pain = experiment: CFA (Freund's adjuvant) mediated pain, topical treatment; type: in vivo, Sprague Dawley Rats
Description: The total 24 female Sprague Dawley Rats were assigned to two test and two control groups having 6 animals per group. Animals from G1 and G2 received CFA on Day 1 by intraplanter route followed application of test item (0 and 3% respectively), onto injection site from Day 1 to Day 7. Group G3 and G4 animals received deep incision through the skin and fascia of the plantar foot followed by application of test item (0 and 3% respectively), onto the incision site from Day 1 to Day 7. Clinical signs, body weight and pain assessment parameters like Von Frey estimation and FOB was evaluated and the pain reduction results at Day 7 are summarized in Table 7.

[2] = Solubility in water / precipitation in buffer; type: physicochemical; settings: listed as compound of formula I
Protocol: To solubilize the free base in water the novel technology AvignaSOL (N,N-Dimethyl hexanamide; patent number: U.S. Pat. No. 9,186,338B2) and its higher derivatives such as octinamide, decamide which improve the absorption of various poorly soluble drugs was used. AvignaSOL as 1-70% ww % assisted the solubilization of free base as 1 gm/20 mL of water. The solubility of free base in water assisted its direct use in various formulation such as creams, gels, solutions which together with the permeation enhancing effect will be harnessed to improve skin penetration and/or bioavailability and in altering the pharmacokinetics and pharmacodynamics profile of free base.
The AvignaSOL having a log P of ˜1.6 hinder the release by increasing the hydrophobicity of the delivery system. […] The combination of compound of formula I with other ingredients including sustained release enhancer with or without AvignaSOL were prepared as novel formulation techniques to improve and/or alter the pharmacokinetics and pharmacodynamics profile of compound of Formula I.

[3] = tested on: dinitrofluorobenzene (DNFB)-induced delayed-type hypersensitivity; experiment: DNFB-induced delayed-type hypersensitivity (DTH); type: in vivo; settings: 3 mg/kg twice daily
Protocol: The efficacy of compound of formula (I) was determined in an animal model of dinitrofluorobenzene (DNFB)-induced delayed-type hypersensitivity (DTH), an inflammatory model. The animals (n=9) were treated with the vehicle or a compound of formula (I), receiving a twice daily dose of 3 mg/kg. The efficacy end points were measured as Ear thickness before challenge and 24 h after challenge. Ear weight was measured 24 h after challenge. At sacrifice, right ear samples were collected and used for tissue MPO activity.

[4] = tested on: atopic dermatitis and psoriasis disease models; experiment: Atopic dermatitis and psoriasis disease models, cytokines; settings: in vivo
[5] = tested on: formalin induced nociception; experiment: Formalin induced nociception (pain); type: in vivo, Sprague Dawley rats
Protocol: Forty male Sprague Dawley rats were assigned to different treatment and control groups containing 8 animals/group. The groups were treated with different doses of a compound of Formula I and received either 0.03, 0.3 and 3.0 mg/kg dose, administered orally 30 min before formalin injection. Tramadol hydrochloride (30 mg/kg) was administered orally 30 min before formalin injection as a positive control. Deionized water was used as a negative control (Vehicle) and administered orally 30 min before formalin injection. Individual rats were then gently restrained and formalin (5% in v/v in saline, 50 μl, s.c.) was injected into the plantar surface of the left hind paw using a 27G needle. Post-formalin nociceptive behaviour, paw flinching was recorded for 60 min, in bins of 5 min. The intra plantar injection of formalin (50 μl, 5% v/v) induced marked flinching of the ipsilateral rat paw with typical biphasic response in the vehicle/distilled water treated animals. […] Inhibition of nociceptive behaviour at 0.3 mg/kg (33%, p<0.05) and 3.0 mg/kg (45%, p<0.01) were statistically significant compared to vehicle control.

SMILES: CCCOc1ccc(-c2nc(-c3ccc4oc(C(N)(CO)CO)cc4c3)no2)cc1Cl [compound of formula (I)]
- reduction in seizures ([1]; dosed 1 hour prior to kainic acid, p<0.005): 70%
- neuroprotection (hippocampal histology) ([1]; rat, in vivo): neuroprotective
- mould growth (mould): preventing mould growth at day 14
- wound healing (excision wound): did not inhibit or impair the wound healing
- Pain reduction results at Day 7, CFA mediated pain (CFA mediated pain; 3% (G2), Placebo (G1) 0.17): 0.00
- pain relief (CFA mediated pain; 3% topical Day 1 to Day 7, day 7): complete pain relief
- solubility in water [2]: soluble in water
- MPO activity (ear tissue) [3]: significantly reduced
- reduction of ear thickness ([3]; 24 h after challenge, p<0.0001): ~70%
- reduction of ear weight ([3]; 24 h after challenge, p<0.01): ~50%
- cytokines IL17, IL23, IL2 [4]: downregulates the cytokines IL17, IL23, IL2
- inhibition of nociceptive behaviour ([5]; 0.3 mg/kg oral 30 min before formalin, p<0.05): 33%
- inhibition of nociceptive behaviour ([5]; 3.0 mg/kg oral 30 min before formalin, p<0.01): 45%
- nociceptive behaviour ([5]; 0.03, 0.3 and 3 mg/kg oral 30 min before formalin): inhibited nociceptive behaviour
